From paper PMC7031696 (Cell chemical biology, 2019)
Where two headings read alike, the source gives them in different places.

Tests used:
[1] = test system: synchronized Plasmodium falciparum parasites; experiment: Microscopical study of cell morphology after 8-h exposures (Figure S4); assay type: cell-based; settings: 3× the IC50^8h of the most sensitive life stage, 8-h intervals
[2] = test system: 3D7-A10 or Dd2-B2 parasites; experiment: Resistance selections (single step, pulsing or ramping); assay type: cell-based, Plasmodium falciparum
[3] = test system: 3D7-MR4 trophozoite parasite-infected RBCs; experiment: Metabolomic profiling (hydrophilic metabolite changes, UHPLC-MS); assay type: cell-based, Plasmodium falciparum
[4] = test system: Plasmodium falciparum 3D7-A10 parasites; experiment: Stage specificity assay (8-h exposure of synchronized stages, IC50^8h); assay type: cell-based; settings: for IC50: Plasmodium falciparum
[5] = test system: asynchronous 3D7-A10 parasite cultures; experiment: Standard 72-h exposure asexual blood stage susceptibility assay (IC50^72h); assay type: cell-based, Plasmodium falciparum; settings: Plasmodium falciparum, 3D7, 72 h, read-out: Overall (72hr assay) Mean IC50 (IC50^72h)
[6] = 10 × IC50^72h, 2.5 hr, trophozoites

CC(C)(C)OC(=O)N1CCN(c2ccccc2NC(=O)c2cccc(C(F)(F)F)c2Oc2ccc(F)cc2)CC1 [MMV030666]
digestive vacuole morphology [1]: bloated digestive vacuoles
most susceptible stage by cell morphology [1]: late trophozoite stage
outcome of ramping resistance selection ([2]; 3D7-A10, 1 × to 1.8 × IC50^72h over 3 months): did not produce resistance
outcome of resistance selections (continuous exposure or pulsing) ([2]; 5 × 10^8 to 1 × 10^9 3D7-A10 or Dd2-B2 parasites, 3–6 × IC50^72h): failed to yield resistance
minimum inocula of resistance ([2]; from failed selections in 3D7-A10 / Dd2-B2): above 5 × 10^8 parasites
metabolic signature: increases in the pyrimidine precursors dihydroorotate and N-carbamoyl-L-aspartate (mETC disruption) [3, 6]: observed
orotidine 5-P levels [3, 6]: decreased
peptide levels (hemoglobin catabolism signature) [3, 6]: decreased peptide levels
Log2(fold changes) 3-phosphoglycerate ([3]; metabolite 3-phosphoglycerate, log2 fold change): 0.0028
Log2(fold changes) 4-Pyridoxic acid ([3]; metabolite 4-Pyridoxic acid, log2 fold change): -0.4279
Log2(fold changes) 4-aminobutyrate ([3]; metabolite 4-aminobutyrate, log2 fold change): -0.0634
Log2(fold changes) 4-phosphopantetheine ([3]; metabolite 4-phosphopantetheine, log2 fold change): -0.3320
Log2(fold changes) 4-phosphopantothenate ([3]; metabolite 4-phosphopantothenate, log2 fold change): -1.0807
Log2(fold changes) 5-aminopentanoic acid ([3]; metabolite 5-aminopentanoic acid, log2 fold change): 0.0000
Log2(fold changes) 5-methyl-THF ([3]; metabolite 5-methyl-THF, log2 fold change): 0.0000
Log2(fold changes) 5-phosphoribosyl-1-pyrophosphate ([3]; metabolite 5-phosphoribosyl-1-pyrophosphate, log2 fold change): -0.6917
Log2(fold changes) 6-phospho-D-gluconate ([3]; metabolite 6-phospho-D-gluconate, log2 fold change): -0.3165
Log2(fold change) HVDD ([3]; metabolite HVDD): -4.9061
Log2(fold change) Hydroxyisocaproic acid ([3]; metabolite Hydroxyisocaproic acid): 0.0000
Log2(fold change) IDP ([3]; metabolite IDP): 0.0000
Log2(fold change) IMP ([3]; metabolite IMP): 0.0932
Log2(fold change) Inositol ([3]; metabolite Inositol): 0.0000
Log2(fold change) Isopentyl-PP ([3]; metabolite Isopentyl-PP): 0.0000
Log2(fold change) L-arginino-succinate ([3]; metabolite L-arginino-succinate): -1.0911
Log2(fold change) LD ([3]; metabolite LD): -0.6358
Log2(fold change) Myristoyl/tetradecanoyl-CoA ([3]; metabolite Myristoyl/tetradecanoyl-CoA): 0.0000
Log2(fold change) N-Acetyl-L-alanine ([3]; metabolite N-Acetyl-L-alanine): -0.5215
Log2(fold change) N-acetyl-L-ornithine ([3]; metabolite N-acetyl-L-ornithine): 0.0000
Log2(fold change) N-acetyl-glucosamine-1/6-phosphate ([3]; metabolite N-acetyl-glucosamine-1/6-phosphate): -0.1279
Log2(fold change) N-acetyl-glutamate ([3]; metabolite N-acetyl-glutamate): 0.2373
Log2(fold change) N-acetyl-glutamine ([3]; metabolite N-acetyl-glutamine): -0.0526
Log2(fold change) N-carbamoyl-L-aspartate ([3]; metabolite N-carbamoyl-L-aspartate): 1.9816
Log2(fold change) NAD+ ([3]; metabolite NAD+): -0.1975
Log2(fold change) NADH ([3]; metabolite NADH): 1.6901
Log2(fold change) NADP+ ([3]; metabolite NADP+): -0.2280
Log2(fold change) NADPH ([3]; metabolite NADPH): 1.2462
Log2(fold change) O-acetyl-L-serine ([3]; metabolite O-acetyl-L-serine): 0.0000
Log2(fold change) Octoluse 8/1P ([3]; metabolite Octoluse 8/1P): 0.2225
Log2(fold change) Octoluse Bisphosphate ([3]; metabolite Octoluse Bisphosphate): -1.0839
Log2(fold change) PD ([3]; metabolite PD): -3.4872
Log2(fold change) PE ([3]; metabolite PE): -3.3751
Log2(fold change) PEE ([3]; metabolite PEE): -2.7815
Log2(fold change) PEEK ([3]; metabolite PEEK): -2.6677
Log2(fold change) PVNF ([3]; metabolite PVNF): -4.4222
Log2(fold change) Pyroglutamic acid ([3]; metabolite Pyroglutamic acid): 0.3360
Log2(fold change) Pyrophosphate ([3]; metabolite Pyrophosphate): 0.0000
Log2(fold change) Ribose-5-phosphate ([3]; metabolite Ribose-5-phosphate): -0.7810
Log2(fold change) S-adenosyl-L-homocysteine ([3]; metabolite S-adenosyl-L-homocysteine): 0.2136
Log2(fold change) S-adenosyl-L-methioninamine ([3]; metabolite S-adenosyl-L-methioninamine): 0.0000
Log2(fold change) S-adenosyl-L-methionine ([3]; metabolite S-adenosyl-L-methionine): 0.0000
Log2(fold change) S-methyl-5'-thioadenosine ([3]; metabolite S-methyl-5'-thioadenosine): 0.3369
Log2(fold change) SD ([3]; metabolite SD): -2.5205
Log2(fold change) SDL ([3]; metabolite SDL): -4.4795
Log2(fold change) SID ([3]; metabolite SID): 0.0000
Log2(fold change) Sedoheptulose bisphosphate ([3]; metabolite Sedoheptulose bisphosphate): -0.5250
Log2(fold change) Thiamine pyrophosphate ([3]; metabolite Thiamine pyrophosphate): -0.1162
Log2(fold changes) UDP-D-glucose ([3]; metabolite UDP-D-glucose, log2 fold change): -0.1835
Log2(fold changes) UDP-D-glucuronate ([3]; metabolite UDP-D-glucuronate, log2 fold change): -0.4871
Log2(fold changes) UDP-N-acetyl-glucosamine ([3]; metabolite UDP-N-acetyl-glucosamine, log2 fold change): -0.5093
Log2(fold changes) UDP ([3]; metabolite UDP, log2 fold change): -1.4928
Log2(fold changes) UMP ([3]; metabolite UMP, log2 fold change): -0.5598
Log2(fold changes) UTP ([3]; metabolite UTP, log2 fold change): -1.9407
Log2(fold change) hydroxyphenylpyruvate ([3]; metabolite hydroxyphenylpyruvate): 0.0000
Log2(fold change) hydroxyproline/Aminolevulinate ([3]; metabolite hydroxyproline/Aminolevulinate): -0.0744
Log2(fold change) hypoxanthine ([3]; metabolite hypoxanthine): 0.1169
Log2(fold change) indole ([3]; metabolite indole): 0.3440
Log2(fold change) inosine ([3]; metabolite inosine): -0.2932
Log2(fold change) isoleucine ([3]; metabolite isoleucine): -0.1542
Log2(fold change) lactate ([3]; metabolite lactate): -0.3562
Log2(fold change) leucine ([3]; metabolite leucine): -0.3099
Log2(fold change) lysine ([3]; metabolite lysine): 0.0000
Log2(fold change) malate ([3]; metabolite malate): -1.0993
Log2(fold change) maleic acid ([3]; metabolite maleic acid): -0.3336
Log2(fold change) methionine ([3]; metabolite methionine): -0.1260
Log2(fold change) myo-inositol ([3]; metabolite myo-inositol): 0.0000
Log2(fold change) nicotinamide mononucleotide ([3]; metabolite nicotinamide mononucleotide): 0.0000
Log2(fold change) nicotinate ([3]; metabolite nicotinate): -0.1069
Log2(fold change) ornithine ([3]; metabolite ornithine): 0.0000
Log2(fold change) orotate ([3]; metabolite orotate): -0.1643
Log2(fold change) orotidine-5'-phosphate ([3]; metabolite orotidine-5'-phosphate): -1.8500
Log2(fold change) oxaloacetate ([3]; metabolite oxaloacetate): 0.0000
Log2(fold change) p-aminobenzoate ([3]; metabolite p-aminobenzoate): 0.0000
Log2(fold change) p-hydroxybenzoate ([3]; metabolite p-hydroxybenzoate): 0.0000
Log2(fold change) pantothenate ([3]; metabolite pantothenate): -0.0587
Log2(fold change) phenylalanine ([3]; metabolite phenylalanine): -0.5281
Log2(fold change) phenylpyruvate ([3]; metabolite phenylpyruvate): 0.0000
Log2(fold change) phosphoenolpyruvate ([3]; metabolite phosphoenolpyruvate): 0.0797
Log2(fold change) prephenate ([3]; metabolite prephenate): 0.0000
Log2(fold change) proline ([3]; metabolite proline): -0.4182
Log2(fold change) pyridoxine ([3]; metabolite pyridoxine): 0.0000
Log2(fold change) pyruvate ([3]; metabolite pyruvate): -1.3359
Log2(fold change) riboflavin ([3]; metabolite riboflavin): -0.6446
Log2(fold change) ribose ([3]; metabolite ribose): 0.0000
Log2(fold change) ribose-phosphate ([3]; metabolite ribose-phosphate): 0.0000
Log2(fold change) ribulose-5-phosphate ([3]; metabolite ribulose-5-phosphate): -0.3252
Log2(fold change) serine ([3]; metabolite serine): -0.1988
Log2(fold change) sn-glycerol-3-phosphate ([3]; metabolite sn-glycerol-3-phosphate): 0.6292
Log2(fold change) succinate/Methylmalonic acid ([3]; metabolite succinate/Methylmalonic acid): -1.4071
Log2(fold change) succinyl-CoA/methylmalonyl-CoA ([3]; metabolite succinyl-CoA/methylmalonyl-CoA): -0.7249
Log2(fold change) taurine ([3]; metabolite taurine): 0.0000
Log2(fold change) thiamine ([3]; metabolite thiamine): 0.0000
Log2(fold change) threonine/homoserine ([3]; metabolite threonine/homoserine): -0.8029
Log2(fold change) thymidine ([3]; metabolite thymidine): 0.0000
Log2(fold changes) thymine ([3]; metabolite thymine, log2 fold change): 0.0000
Log2(fold changes) trehalose-6-Phosphate ([3]; metabolite trehalose-6-Phosphate, log2 fold change): 0.0000
Log2(fold changes) tryptophan ([3]; metabolite tryptophan, log2 fold change): 0.1993
Log2(fold changes) tyrosine ([3]; metabolite tyrosine, log2 fold change): -0.2219
Log2(fold changes) uridine ([3]; metabolite uridine, log2 fold change): 0.0000
Ratio lowest IC50 8hr/IC50 72hr ([4]; 3D7-A10): 1.9
killing in stage specificity assay ([4]; 8-h exposures, survival curves): incomplete killing
IC50 ([4]; 3D7, read-out: Early rings Mean IC50 (IC50^8h), 8-h exposure 0–8 hr, 3D7-A10, survival at 60 h): 10.3 µM
IC50 ([4]; 3D7, read-out: Early trophozoites Mean IC50 (IC50^8h), 8-h exposure 16–24 hr, 3D7-A10, survival at 60 h): 5.12 µM
IC50 ([4]; 3D7, read-out: Late rings Mean IC50 (IC50^8h), 8-h exposure 8–16 hr, 3D7-A10, survival at 60 h): 11.4 µM
IC50 ([4]; 3D7, read-out: Late trophozoites Mean IC50 (IC50^8h), 8-h exposure 24–32 hr, 3D7-A10, survival at 60 h): 0.858 µM
IC50 ([4]; 3D7, read-out: Schizonts Mean IC50 (IC50^8h), 8-h exposure 32–40 hr, 3D7-A10, survival at 60 h): 4.19 µM
Stage of peak activity (Figure 6) ([4]; period when the parasite was most susceptible (lowest IC50^8h)): late trophozoites
Peak Activity (Table S1) ([4]; stage(s) with the lowest IC50^8h): Late Trophs
IC50 [5]: 0.462 µM
